Earlier results, collected in patent US20060275504A1, “Methods and compositions for augmenting cancer chemotherapeutic agents” (TTY BIOPHARM COMPANY LIMITED, priority 2005, published 2006).

Compound: S1[As]2S[As]3S[As]2S[As]13 [As4S4, tetraarsenic tetraslfide]
- complete remission rates (arsenic-containing substances other than arsenic trioxide (Wang Z. Y. 2001)): 84.9%

Compound: O=C1O[C@H]([C@@H](O)CO)C(O)=C1O [Ascorbic acid]
- concentration exhibiting cytotoxic activity (MCF-7; MCF-7, ascorbic acid alone): 10^2-10^3 μM
- effect on cytotoxicity of DOX, DDP and TX (MCF-7; MCF-7, ascorbic acid at non-cytotoxic (1 μM) and moderately cytotoxic (10^2 μM) concentration): improved the cytotoxicity of DOX, DDP and TX significantly
- concentration exhibiting cytotoxic activity (MDA-MB-231; MDA-MB-231, ascorbic acid alone): 10^2-10^3 μM
- effect on cytotoxicity of DOX, DDP and TX (MDA-MB-231; MDA-MB-231, ascorbic acid at non-cytotoxic (1 μM) and moderately cytotoxic (10^2 μM) concentration): improved the cytotoxicity of DOX, DDP and TX significantly

Compound: arsenic trioxide
- complete remission (CR) rate (intravenously 10 mg/d, patients with relapsed acute promyelocytic leukemia): 90%
